Measured values: the supplement of paper PMC11451515

Tested on: NOMO1
Experiment: cell viability relative to DMSO control; higher = less cytotoxic
Conditions: 48 h
Outline: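 NOMO1, SEM and P12-Ichikawa leukemia cells spent at least four passages adapting to each medium before use. They were seeded at 500 cells/well (NOMO1, SEM) or 1000 cells/well (P12-Ichikawa) in 5 μl in 1536-well plates and pin-dosed with library compounds in DMSO at 11 threefold steps from 47 μM down to 0.79 nM. After 48 h at 37°C, CellTiter-Glo One luminescence was read. Viability is reported as a percentage of the DMSO wells on each plate, with cell-free wells as background.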

[1] = HPLM + 10% dialyzed FBS, 0.000781 µM
[2] = HPLM + 10% dialyzed FBS, 0.00234 µM
[3] = HPLM + 10% dialyzed FBS, 0.00702 µM
[4] = HPLM + 10% dialyzed FBS, 0.0211 µM
[5] = HPLM + 10% dialyzed FBS, 0.0632 µM
[6] = HPLM + 10% dialyzed FBS, 0.19 µM
[7] = HPLM + 10% dialyzed FBS, 0.569 µM
[8] = HPLM + 10% dialyzed FBS, 1.71 µM
[9] = HPLM + 10% dialyzed FBS, 5.12 µM
[10] = HPLM + 10% dialyzed FBS, 15.4 µM
[11] = HPLM + 10% dialyzed FBS, 46.1 µM
[12] = RPMI 5 mM glucose + 10% FBS, 0.000781 µM
[13] = RPMI 5 mM glucose + 10% FBS, 0.00234 µM
[14] = RPMI 5 mM glucose + 10% FBS, 0.00702 µM
[15] = RPMI 5 mM glucose + 10% FBS, 0.0211 µM
[16] = RPMI 5 mM glucose + 10% FBS, 0.0632 µM
[17] = RPMI 5 mM glucose + 10% FBS, 0.19 µM
[18] = RPMI 5 mM glucose + 10% FBS, 0.569 µM
[19] = RPMI 5 mM glucose + 10% FBS, 1.71 µM
[20] = RPMI 5 mM glucose + 10% FBS, 5.12 µM
[21] = RPMI 5 mM glucose + 10% FBS, 15.4 µM
[22] = RPMI 5 mM glucose + 10% FBS, 46.1 µM
[23] = RPMI 5 mM glucose + 10% dialyzed FBS, 0.000781 µM
[24] = RPMI 5 mM glucose + 10% dialyzed FBS, 0.00234 µM
[25] = RPMI 5 mM glucose + 10% dialyzed FBS, 0.00702 µM
[26] = RPMI 5 mM glucose + 10% dialyzed FBS, 0.0211 µM
[27] = RPMI 5 mM glucose + 10% dialyzed FBS, 0.0632 µM
[28] = RPMI 5 mM glucose + 10% dialyzed FBS, 0.19 µM
[29] = RPMI 5 mM glucose + 10% dialyzed FBS, 0.569 µM
[30] = RPMI 5 mM glucose + 10% dialyzed FBS, 1.71 µM
[31] = RPMI 5 mM glucose + 10% dialyzed FBS, 5.12 µM
[32] = RPMI 5 mM glucose + 10% dialyzed FBS, 15.4 µM
[33] = RPMI 5 mM glucose + 10% dialyzed FBS, 46.1 µM

ClC1=CC=C(C=C1)C(C#N)C2=C(Cl)C=C(C=C2Cl)N3\N=C/C(=O)NC3=O (stereo unspecified)
cell viability [1]: 82.4% | cell viability [2]: 101% | cell viability [3]: 99.5% | cell viability [4]: 111% | cell viability [5]: 112% | cell viability [6]: 103% | cell viability [7]: 125% | cell viability [8]: 104% | cell viability [9]: 97.8% | cell viability [10]: 102% | cell viability [11]: 107% | cell viability [12]: 100% | cell viability [13]: 93.4% | cell viability [14]: 109% | cell viability [15]: 102% | cell viability [16]: 93.1% | cell viability [17]: 94.6% | cell viability [18]: 114% | cell viability [19]: 107% | cell viability [20]: 106% | cell viability [21]: 100% | cell viability [22]: 104% | cell viability [23]: 80.1% | cell viability [24]: 92.6% | cell viability [25]: 86.5% | cell viability [26]: 95.3% | cell viability [27]: 87.1% | cell viability [28]: 110% | cell viability [29]: 99.6% | cell viability [30]: 96.7% | cell viability [31]: 94.6% | cell viability [32]: 103% | cell viability [33]: 98.4%

COc1ccccc1OCC(O)COC(N)=O (stereo unspecified)
cell viability [1]: 79.5% | cell viability [2]: 104% | cell viability [3]: 108% | cell viability [4]: 119% | cell viability [5]: 127% | cell viability [6]: 116% | cell viability [7]: 122% | cell viability [8]: 119% | cell viability [9]: 130% | cell viability [10]: 125% | cell viability [11]: 6.3% | cell viability [12]: 102% | cell viability [13]: 98.1% | cell viability [14]: 102% | cell viability [15]: 113% | cell viability [16]: 109% | cell viability [17]: 98% | cell viability [18]: 119% | cell viability [19]: 103% | cell viability [20]: 114% | cell viability [21]: 119% | cell viability [22]: 113% | cell viability [23]: 94.7% | cell viability [24]: 109% | cell viability [25]: 111% | cell viability [26]: 105% | cell viability [27]: 116% | cell viability [28]: 119% | cell viability [29]: 102% | cell viability [30]: 107% | cell viability [31]: 122% | cell viability [32]: 108% | cell viability [33]: 100%

O=C(O)Cn1nnc(-c2cc(N3CCC(Oc4cc(F)ccc4Br)CC3)no2)n1
cell viability [1]: 96% | cell viability [2]: 97.7% | cell viability [3]: 97.2% | cell viability [4]: 111% | cell viability [5]: 108% | cell viability [6]: 99.6% | cell viability [7]: 106% | cell viability [8]: 34.7% | cell viability [9]: 29.9% | cell viability [10]: 24.4% | cell viability [11]: 24.6% | cell viability [12]: 102% | cell viability [13]: 105% | cell viability [14]: 106% | cell viability [15]: 109% | cell viability [16]: 109% | cell viability [17]: 106% | cell viability [18]: 104% | cell viability [19]: 22.9% | cell viability [20]: 22.1% | cell viability [21]: 16% | cell viability [22]: 16.6% | cell viability [23]: 83.1% | cell viability [24]: 109% | cell viability [25]: 100% | cell viability [26]: 104% | cell viability [27]: 115% | cell viability [28]: 113% | cell viability [29]: 112% | cell viability [30]: 45.2% | cell viability [31]: 31.9% | cell viability [32]: 25.4% | cell viability [33]: 22.8%

COc1ccc([S+](=O)([O-])N(C(C)=O)c2ccccc2/C=C/c2cc[n+]([O-])cc2)cc1
cell viability [12]: 116% | cell viability [13]: 106% | cell viability [14]: 129% | cell viability [15]: 114% | cell viability [16]: 105% | cell viability [17]: 112% | cell viability [18]: 130% | cell viability [19]: 44.5% | cell viability [20]: 21% | cell viability [21]: 24.4% | cell viability [22]: 22.6% | cell viability [23]: 108% | cell viability [24]: 111% | cell viability [25]: 116% | cell viability [26]: 126% | cell viability [27]: 115% | cell viability [28]: 121% | cell viability [29]: 122% | cell viability [30]: 46.4% | cell viability [31]: 25.3% | cell viability [32]: 26.8% | cell viability [33]: 28.4%

O=C1[C@H](Cc2ccc(O)cc2)N2C(=O)CCN(C(=O)NCc3ccccc3)[C@H]2CN1Cc1cccc2ccccc12
cell viability [1]: 86.9% | cell viability [2]: 82.6% | cell viability [3]: 88.9% | cell viability [4]: 97.3% | cell viability [5]: 92.1% | cell viability [6]: 78.6% | cell viability [7]: 86.3% | cell viability [8]: 85% | cell viability [9]: 74.9% | cell viability [10]: 18.3% | cell viability [11]: 74% | cell viability [12]: 81.7% | cell viability [13]: 78.7% | cell viability [14]: 86.9% | cell viability [15]: 81% | cell viability [16]: 83.1% | cell viability [17]: 73.9% | cell viability [18]: 83.7% | cell viability [19]: 73.5% | cell viability [20]: 73.1% | cell viability [21]: 10.6% | cell viability [22]: 81.1% | cell viability [23]: 76.7% | cell viability [24]: 89.9% | cell viability [25]: 89.5% | cell viability [26]: 104% | cell viability [27]: 92.5% | cell viability [28]: 89.5% | cell viability [29]: 84.2% | cell viability [30]: 82.7% | cell viability [31]: 79.2% | cell viability [32]: 13.7% | cell viability [33]: 82.8%

CC1CNc2c(cccc2[S+](=O)([O-])N[C@@H](CCCNC(=N)N)C(=O)N2CC[C@@H](C)C[C@@H]2C(=O)O)C1 (stereo partly specified)
cell viability [1]: 117% | cell viability [2]: 101% | cell viability [3]: 106% | cell viability [4]: 106% | cell viability [5]: 104% | cell viability [6]: 94.9% | cell viability [7]: 106% | cell viability [8]: 114% | cell viability [9]: 101% | cell viability [10]: 112% | cell viability [11]: 123% | cell viability [12]: 98.3% | cell viability [13]: 87.9% | cell viability [14]: 99.4% | cell viability [15]: 96.9% | cell viability [16]: 103% | cell viability [17]: 98.2% | cell viability [18]: 100% | cell viability [19]: 93.3% | cell viability [20]: 96.6% | cell viability [21]: 100% | cell viability [22]: 95.1% | cell viability [23]: 86.3% | cell viability [24]: 87.7% | cell viability [25]: 101% | cell viability [26]: 107% | cell viability [27]: 97.6% | cell viability [28]: 94.3% | cell viability [29]: 101% | cell viability [30]: 110% | cell viability [31]: 99.6% | cell viability [32]: 111% | cell viability [33]: 102%

C[C@@]12C(=O)OC(=O)[C@@]1(C)C1CCC2O1
cell viability [1]: 111% | cell viability [2]: 109% | cell viability [3]: 107% | cell viability [4]: 116% | cell viability [5]: 115% | cell viability [6]: 123% | cell viability [7]: 114% | cell viability [8]: 101% | cell viability [9]: 70.4% | cell viability [10]: 12.6% | cell viability [11]: 6.53% | cell viability [12]: 98.4% | cell viability [13]: 90.8% | cell viability [14]: 86.6% | cell viability [15]: 87.1% | cell viability [16]: 103% | cell viability [17]: 89.9% | cell viability [18]: 95.3% | cell viability [19]: 81.6% | cell viability [20]: 79.9% | cell viability [21]: 8.16% | cell viability [22]: 6.61% | cell viability [23]: 110% | cell viability [24]: 96.1% | cell viability [25]: 101% | cell viability [26]: 99.7% | cell viability [27]: 106% | cell viability [28]: 106% | cell viability [29]: 88.6% | cell viability [30]: 89.8% | cell viability [31]: 64.9% | cell viability [32]: 7.15% | cell viability [33]: 5.77%

Cc1cnn(C)c1C(=O)Nc1cc(Nc2ccc3c(/C=C/c4ccccn4)n[nH]c3c2)ccc1F
cell viability [1]: 119% | cell viability [2]: 125% | cell viability [3]: 124% | cell viability [4]: 141% | cell viability [5]: 129% | cell viability [6]: 113% | cell viability [7]: 143% | cell viability [8]: 120% | cell viability [9]: 102% | cell viability [10]: 70.4% | cell viability [11]: 12.9%
